These results are taken from paper PMC3527734, “Peripheral injections of melanin-concentrating hormone receptor 1 antagonist S38151 decrease food intake and body weight in rodent obesity models” (Frontiers in Endocrinology, 2012).

Data set [1] has as its system Zucker fa/fa rats. Conditions: cyclophosphamide 100 mg/kg i.p., S38151 20 nmol/kg (28 μg/kg) i.c.v., n = 8. As to the method: These experiments were performed with modifications to previously described methods (Madden et al., [1999]). Rats were individually housed in wire-bottomed plastic cages with free access to both food pellets (6 mm diameter A03 UAR) and kaolin powder. The food pellets were presented in a small porcelain bowl on the floor of the cage. The kaolin powder was presented in a metal feeding dish attached to the inside of the cage. After a 2-week habituation period to these conditions, the animals were randomized into five treatment groups based on the quantity of food eaten during the stabilization period. In addition, those rats that consistently spilled the kaolin powder were eliminated from the study. One day after randomization, the animals were injected just before the beginning of the dark phase with either cyclophosphamide (100 mg/kg, i.p.), or S38151 [20 nmol/kg (28 μg/kg) i.c.v.] or vehicle [(artificial CSF) i.c.v.]. After injection, the quantity of kaolin and food ingested during the following 24-h period was determined. Food or kaolin spilled by the animals was collected at the end of the experiment, and total food and kaolin intake measurements were corrected for this loss.
Figure 5 The effects of S38151 on conditioned taste aversion and pica in Zucker fa/fa rats. (A) In the conditioned taste aversion test, after a period of habituation of the animals to the experimental protocol, Zucker fa/fa rats were presented with 0.2% saccharine for 20 min after drinking water was removed from their cages for 18 h (test day 0). Animals were then injected (i.p.) with vehicle or lithium chloride, or with S38151 (20 nmol/kg, i.c.v). On test days 4, 7, 11, and 14, rats were presented with 0.2% saccharine, and the quantity consumed during a 20-min period was determined. Results are expressed as mean ± SEM (n = 10–11 rats per group). […] (B) In the pica test, Zucker fa/fa rats were injected (i.c.v.) with 20 nmol/kg S38151, or an equivalent volume of artificial cerebrospinal fluid vehicle. Food and kaolin intake during the following 24-h period were each measured. Results are expressed as mean ± SEM (n = 8 rats per group).

The subject of data set [2] is Zucker fa/fa rats. Kind of data set: conditioned taste aversion. Format: in vivo, rat. Conditions: test days 4, 7, 11, 14 versus control; lithium chloride 75 mg/kg i.p.; S38151 20 nmol/kg i.c.v.; n = 10-11.
In the next data set the test system is C57BL/6J mice. Kind of data set: daily i.c.v. MCH, food intake and body weight in lean mice. Format: in vivo, mouse. Conditions: n = 10. As to the method:
(§1) For the MCH daily repeated i.c.v. injection studies, 13-week-old female C57BL/6J and ob/ob mice were used (Harlan, Gannat, France).
(§2) Figure 7 The effect of repeated daily central administration of MCH to lean (C57BL/6J) and obese (ob/ob) mice. C57BL/6J (A and B) and ob/ob (C and D) mice were administered MCH (5 μg/mouse/day) or artificial cerebrospinal fluid vehicle through i.c.v. injections for 5 consecutive days. Results are expressed as mean ± SEM (n = 10 mice per group). […] TEXT PRINTED IN THE PICTURE: (A) MCH: Food Intake/24h (g), C57BL/6J: Δ = 1.3 g | (B) MCH: Δ Body Weight (g), C57BL/6J: Δ = 1.3 g | (C) MCH: Food Intake/24h (g), ob/ob: Δ = 3.2 g | (D) MCH: Δ Body Weight (g), ob/ob: Δ = 2.1 g DOUBTS OF THE COPYIST ABOUT THIS PICTURE: The Δ values are printed beside the curve pairs with no substance label; I assigned them to MCH, reading them as the MCH versus Control difference.

Another data set has as its system ob/ob mice. The data set can be described thus: daily i.c.v. MCH, food intake and body weight in obese mice. Format: in vivo. Conditions: MCH 5 μg/mouse/day i.c.v. for 5 days, n = 10. As to the method: as §1, §2
In another data set the test system is Wistar rats. The data set can be described thus: NEI-MCH-induced food intake after acute i.c.v. injection. Format: in vivo, rat. The conditions noted are these: NEI-MCH alone or any combination of NEI-MCH and S38151, i.c.v. The source says: Wistar and Zucker fa/fa rats were anesthetized with Forène (Abbott Laboratories, Queenborough, UK), and a stainless steel guide cannula (Plastic Products Co, Roanoke, Va, USA) was stereotaxically implanted into the right lateral ventricle at the following coordinates relative to the bregma: AP −0.8 mm, L = −1.2 mm, and V = −3.5 mm. After a 7-day recovery period, during which the animals were handled each day to minimize non-specific stress, they were lightly anesthetized with Forène. Human/mouse/rat MCH (1 μg in a volume of 2.5 μ L, Bachem, Voisins-le-Bretonneux, France) or an equivalent volume of artificial cerebrospinal fluid (CSF) was then injected through the intraventricular cannula. Immediately after injection, the animals quickly recovered and were returned to their home cages. Only those animals responding within 2 h with a robust increase in food intake, indicating correct cannula placement, were used in the experiments described below. Two days after MCH injection, the rats were randomly assigned to different groups and studied in one of the following protocols.
Wistar rats were habituated for at least 2 weeks before experiment to a diet of food pellets (6 mm diameter) of the following composition: 67.5% food flour, 26.5% sucrose, 5% gum tragacanth, and 1.25% magnesium stearate (A03 UAR, Orge, France). The food pellets were present in a metal food hopper attached to the inside of each cage. At 09:00 on the day of study, the animals were lightly anesthetized with Forene® (Abbott, France). Thereafter, rats were injected intra-cerebroventricular (i.c.v.) with vehicle (artificial CSF) or with S38151 [0.5, 5, 10, 20, 30, or 50 nmol/kg ([…], 14, 28, 42, or 70 μg/kg, respectively)] in a volume of 2.5 μL, 20 min prior to the injection of human/rat NEI-MCH [5 nmol/kg (18.7 μg/kg) in a volume of 2.5 μL].
Food intake was measured at different times after peptide injection. Food spillage was carefully quantified during each time period, and intake measurements were corrected for this loss. At the end of the experiments, the animals were euthanized and the positions of the cannulae were assessed by the injection of 100 μ L Evans blue dye (2 mg/mL) followed by the visual examination of brain slices. Only data obtained from animals with correctly positioned cannulae were included in the final data analysis.
Figure 3 The effect of S38151 on NEI-MCH-induced food intake in Wistar rats after acute central administration. Satiated rats were injected (i.c.v.) at the beginning of the light phase with 5 μg NEI-MCH, 5 μg NEI-MCH + differing doses of S38151 (0.5–50 nmol/kg), or an equivalent volume of artificial cereblospinal fluid vehicle (5 μL). Cumulative food intake was measured at 1, 2, 4, 6, and 24 h post-injection.

Where no end group is shown, it is not given here.

For `O=P1(N(CCCl)CCCl)NCCCO1` (centres unmarked) [Cyclophosphamide, cyclophosphamide, reference compound], the “kaolin intake, 24 h, pica test” value with Zucker fa/fa rats [1] (vehicle 0.05 ± 0.01 g) is “significant increase”. Moreover, the “food intake, 24 h, pica test” value with Zucker fa/fa rats [1] (vehicle 27 ± 1 g) was “nearly complete suppression”.
Turning to `[Cl-].[Li+]` [lithium chloride, reference compound], in the data set on Zucker fa/fa rats [2], the 0.2% saccharine consumption result was “significant reduction”.
Turning to Melanin-concentrating hormone [MCH], the “Δ food intake vs. controls, day 5” value with C57BL/6J mice (MCH 5 μg/mouse/day (100 nmol/kg/day) i.c.v. for 5 days) was “+1.3 g”. Moreover, the “Δ body weight vs. controls, day 5” value in the data set on C57BL/6J mice (MCH 5 μg/mouse/day i.c.v. for 5 days) is “+1.3 g”. In the data set on ob/ob mice, the “Δ body weight vs. controls, after 5 days” value is “+2.1 g” and the “Δ food intake vs. controls, day 5” value is given as “+3.2 g”.
With “NEI-MCH: stable precursor of melanin-concentrating hormone, human/rat NEI-MCH (EIGDEENSAKFPIGRRDFDMLRCMLGRVYRPCWQV; ends and bridges not checked; cysteine pairing not given here; UniProt P20382 131-165, looked up, fragment) [reference compound]”, the “food intake during the entire 24-h period versus control group” value with Wistar rats was “not significantly altered”.
